Measured values as given in US8865894B2, “Oxazolidin-2-one compounds and uses thereof” (Novartis AG, priority 2012, dated 2014).

Target: T1, human PI3Kδ (Homo sapiens, UniProt O00329)
T1 construct: made in house
T1 sequence (O00329 2-1044 limits assumed): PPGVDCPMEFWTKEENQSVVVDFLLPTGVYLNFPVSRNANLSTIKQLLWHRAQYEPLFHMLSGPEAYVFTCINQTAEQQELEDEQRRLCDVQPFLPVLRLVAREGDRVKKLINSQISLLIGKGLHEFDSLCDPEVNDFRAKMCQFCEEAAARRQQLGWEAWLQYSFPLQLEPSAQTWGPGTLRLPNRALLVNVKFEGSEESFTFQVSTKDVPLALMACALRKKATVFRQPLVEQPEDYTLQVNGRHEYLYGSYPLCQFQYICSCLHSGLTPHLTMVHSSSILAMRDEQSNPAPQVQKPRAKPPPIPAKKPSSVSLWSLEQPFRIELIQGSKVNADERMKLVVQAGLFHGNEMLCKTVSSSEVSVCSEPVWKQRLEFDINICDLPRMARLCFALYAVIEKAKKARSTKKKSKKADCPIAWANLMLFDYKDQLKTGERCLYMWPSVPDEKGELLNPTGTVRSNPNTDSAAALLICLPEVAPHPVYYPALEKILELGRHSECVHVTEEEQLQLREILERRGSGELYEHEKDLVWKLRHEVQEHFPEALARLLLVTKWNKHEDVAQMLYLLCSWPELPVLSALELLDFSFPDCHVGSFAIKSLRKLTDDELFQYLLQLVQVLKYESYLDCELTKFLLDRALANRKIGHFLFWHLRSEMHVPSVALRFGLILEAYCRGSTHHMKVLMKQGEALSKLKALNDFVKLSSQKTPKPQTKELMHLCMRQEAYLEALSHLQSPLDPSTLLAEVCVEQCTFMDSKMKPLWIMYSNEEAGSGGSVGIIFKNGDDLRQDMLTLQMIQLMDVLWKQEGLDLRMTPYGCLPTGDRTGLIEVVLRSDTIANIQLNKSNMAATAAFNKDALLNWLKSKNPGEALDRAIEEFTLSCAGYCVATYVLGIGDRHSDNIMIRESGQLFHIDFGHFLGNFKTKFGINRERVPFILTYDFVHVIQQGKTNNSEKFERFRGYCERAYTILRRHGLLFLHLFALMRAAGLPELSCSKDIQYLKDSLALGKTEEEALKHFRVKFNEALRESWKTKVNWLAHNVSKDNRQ
Test: Biochemical PI3Kdelta (TR-FRET Adapta Universal Kinase Assay)
Conditions: mean of n measurements, read-out: PIK3d/ IC50
Procedure: Test compounds were dissolved in DMSO (10 mM) and transferred into 1.4 mL flat bottom or V-shaped Matrix tubes carrying a unique 2D matrix chip by individual Novartis compound hubs. The numbers of these chips were distinctively linked to Novartis Pharma Numbers. The stock solutions were stored at −20° C. if not used immediately. For the test procedure the vials were defrosted and identified by a scanner whereby a working sheet was generated that guided the subsequent working steps.
Compounds were either manually diluted in DMSO for individual experiments (96 wells enabling 10 cpds at 8 (single points) concentrations) as described in or prepared as described below if tested for profiling in 384-wells. This format enabled the assay of maximally 40 individual test compounds at 8 concentrations (single points) including 4 reference compounds. The dilution protocol included the production of “pre-dilution plates”, “master plates” and “assay plates”.
96 polypropylene well plates were used as pre-dilution plates. A total of 4 pre-dilution plates were prepared including 10 test compounds each on the plate positions A1-A10, one standard compound at A11 and one DMSO control at A12. Programs have been written to run these pipetting steps on the HamiltonSTAR robots.
Identical “assay plates” were then prepared by pipetting 50 nL each of compound dilutions of the “master plates” into 384-well “assay plates”. The compounds were mixed with 4.5 μL of assays components plus 4.5 μL enzyme corresponding to a 1:181 dilution enabling the final concentration of 10, 3.0, 1.0, 0.3, 0.1, 0.03, 0.01 and 0.003 μM, respectively. The preparation of the “master plates” was handled by the Matrix PlateMate Plus robot and replication of “assay plates” by the HummingBird robot.
Catalytically active human PI3Kα, PI3Kβ, PI3Kδ, and mTOR were cloned, expressed and purified as described (Maira S M, Stauffer F, Brueggen J, Furet P, Schnell C, Fritsch C, Brachmann S, Chène P, de Pover A, Schoemaker K, Fabbro D, Gabriel D, Simonen M, Murphy L, Finan P, Sellers W, García-Echeverría C (2008), Mol Cancer Ther. 7:1851-63 and Maira S M, Pecchi S, Brueggen J, Huh K, Schnell C, Fritsch C, Nagel T, Wiesmann M, Brachmann S, Dorsch M, Chène P, Schoemaker K, De Pover A, Menezes D, Fabbro D, Sellers W, García-Echeverría C, Voliva C F (2011), Mol. Cancer Ther. accepted).
The TR-FRET Adapta™ Universal Kinase Assay Kit was purchased from Invitrogen Corporation (Carlsbad/CA, USA) (Cat. No. PV5099). The kit contains the following reagents: Adapta Eu-anti-ADP Antibody (Europium labeled anti-ADP antibody in HEPES buffered saline, Cat. No. PV5097), Alexa Fluor® 647-labeled ADP tracer (Alexa Fluor® 647-labeled ADP tracer in HEPES buffered saline, Cat. No. PV5098), proprietary TR-FRET dilution buffer pH 7.5 (Cat. No. PV3574).
PIK3CD substrate Phosphatidylinositol was obtained from Invitrogen (vesicules consisting of 2 mM PI in 50 mM HEPES pH7.5; Cat. No. PV5371). PIK3CG substrate Phosphatidylinositol-4,5-bisphosphate (PIP(4,5)2 was obtained from Invitrogen (PIP2:PS large unilamellar vesicules consisting of 1 mM PIP2: 19 mM PS in 50 mM HEPES pH7.5, 3 mM MgCl2, 1 mM EGTA; Cat. No. PV5100).
Time-Resolved Fluorescence Resonance Energy Transfer (TR-FRET) is a technology based on energy transfer between two adjacent dyes, from an excited electron in one dye (the donor) to an electron of an adjacent dye (the acceptor) through resonance, then released as a photon. This energy transfer is detected by an increase in the fluorescence emission of the acceptor, and a decrease in the fluorescence emission of the donor. TR-FRET assays for protein kinases use a long-lifetime lanthanide Terbium or Europium chelates as the donor species which overcome interference from compound autofluorescence or light scatter from precipitated compounds, by introducing a delay after excitation by a flashlamp excitation source. Results are often expressed as a ratio of the intensities of the acceptor and donor fluorophores.

| IC50 [nM] | SMILES |
| --- | --- |
| 32 | Nc1ncc(-c2cc(N3C(=O)OC[C@@H]3CCO)nc(N3CCOCC3)n2)c(C(F)(F)F)n1 [Example 9, (S)-3-(2′-Amino-2-morpholin-4-yl-4′-trifluoromethyl-[4,5′]bipyrimidinyl-6-yl)-4-(2-hydroxy-ethyl)-oxazolidin-2-one] |
| 4 | COC[C@H]1COC(=O)N1c1cc(-c2cnc(N)nc2C(F)(F)F)nc(N2CCOCC2)n1 [Example 5, (S)-3-(2′-Amino-2-morpholin-4-yl-4′-trifluoromethyl-[4,5′]bipyrimidinyl-6-yl)-4-methoxymethyl-oxazolidin-2-one] |
| 6 | Nc1ncc(-c2cc(N3C(=O)O[C@@H]4[C@@H](O)CC[C@@H]43)nc(N3CCOCC3)n2)c(C(F)(F)F)n1 (racemic) [Example 22, (3aR*,6R*,6aR*)-3-(2′-Amino-2-morpholino-4′-(trifluoromethyl)-[4,5′-bipyrimidin]-6-yl)-6-hydroxyhexahydro-2H-cyclopenta[d]oxazol-2-one] |
| 21 | C[C@H]1COCCN1c1nc(-c2cnc(N)nc2C(F)(F)F)cc(N2C(=O)OC[C@@H]2C)n1 [Example 13, (S)-3-[2′-Amino-2-((S)-3-methyl-morpholin-4-yl)-4′-trifluoromethyl-[4,5′]bipyrimidinyl-6-yl]-4-methyl-oxazolidin-2-one] |
| 23 | Nc1ncc(-c2cc(N3C[C@H](CO)OC3=O)nc(N3CCOCC3)n2)c(C(F)(F)F)n1 [Example 20, (R)-3-(2′-Amino-2-morpholin-4-yl-4′-trifluoromethyl-[4,5′]bipyrimidinyl-6-yl)-5-hydroxymethyl-oxazolidin-2-one] |
| 12 | C[C@H]1OC(=O)N(c2cc(-c3cnc(N)nc3C(F)(F)F)nc(N3CCOC[C@@H]3C)n2)[C@H]1CO [Example 10, (4S,5R)-3-[2′-Amino-2-((S)-3-methyl-morpholin-4-yl)-4′-trifluoromethyl-[4,5′]bipyrimidinyl-6-yl]-4-hydroxymethyl-5-methyl-oxazolidin-2-one] |
